In article doi:10.1101/2025.01.28.635346v1 (bioRxiv, 2025):
Like-named read-outs stand apart in the source and are kept apart here. Bridge positions count the residues as written; N and C are the ends. Side chains are listed from the residue outwards. Peptide text beside a SMILES is read from it. * marks the point of attachment. Butanoyl(4-(4-I-phenyl)) = O=C(CCCc1ccc(I)cc1)*; PEG2 = NCCOCCOCCC(=O)O

Columns and labels:
ROCK1 = ROCK1 (Homo sapiens, UniProt Q13464); assay: Safetyscan47 Kinases Binding, Inhibitor; details: for Emax: read-out: Max Response
DRD2S = DRD2S (Homo sapiens, UniProt P14416); assay: Safetyscan47 GPCR cAMP, Antagonist; type: cell-based; details: for Emax: read-out: Max Response
MAOA = target: T1, MAOA (Homo sapiens, UniProt P21397); assay: Safetyscan47 Non-Kinase Enzymes Enzymatic, Inhibitor; type: biochemical; details: for Emax: read-out: Max Response
T1 sequence (P21397 1-527): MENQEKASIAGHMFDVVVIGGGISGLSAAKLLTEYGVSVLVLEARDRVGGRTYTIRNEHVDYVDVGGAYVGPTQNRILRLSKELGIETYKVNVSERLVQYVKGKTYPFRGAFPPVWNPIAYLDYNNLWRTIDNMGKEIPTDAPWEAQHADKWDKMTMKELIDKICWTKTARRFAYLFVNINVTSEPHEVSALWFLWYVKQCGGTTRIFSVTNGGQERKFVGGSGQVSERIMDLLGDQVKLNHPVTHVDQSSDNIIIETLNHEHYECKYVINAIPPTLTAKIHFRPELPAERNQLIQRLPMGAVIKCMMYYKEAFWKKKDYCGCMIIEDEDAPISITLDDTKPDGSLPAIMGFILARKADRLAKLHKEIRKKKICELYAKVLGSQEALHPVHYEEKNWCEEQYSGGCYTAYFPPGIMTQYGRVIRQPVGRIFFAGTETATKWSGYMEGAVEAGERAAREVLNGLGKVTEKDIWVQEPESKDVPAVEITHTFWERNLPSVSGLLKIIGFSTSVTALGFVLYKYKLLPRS

CHRM1 = target: T2, CHRM1 (Homo sapiens, UniProt P11229); assay: Safetyscan47 GPCR Calcium Flux, Agonist; type: cell-based; details: for Emax: read-out: Max Response
T2 sequence (P11229 1-460): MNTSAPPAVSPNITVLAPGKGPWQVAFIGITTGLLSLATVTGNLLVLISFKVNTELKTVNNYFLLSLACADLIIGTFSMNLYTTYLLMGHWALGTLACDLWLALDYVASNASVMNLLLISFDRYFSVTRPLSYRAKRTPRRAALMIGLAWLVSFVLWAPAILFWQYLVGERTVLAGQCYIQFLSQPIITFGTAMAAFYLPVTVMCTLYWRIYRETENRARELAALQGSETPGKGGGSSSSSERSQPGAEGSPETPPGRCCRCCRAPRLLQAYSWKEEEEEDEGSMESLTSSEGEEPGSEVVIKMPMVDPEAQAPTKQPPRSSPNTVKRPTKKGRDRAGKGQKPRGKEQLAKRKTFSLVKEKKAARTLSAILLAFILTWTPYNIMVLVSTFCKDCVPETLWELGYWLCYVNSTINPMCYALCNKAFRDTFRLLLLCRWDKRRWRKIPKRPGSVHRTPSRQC

DAT = DAT (Homo sapiens, UniProt Q01959); assay: Safetyscan47 Transporter, Blocker; type: cell-based; details: for Emax: read-out: Max Response
ADORA2A = ADORA2A (Homo sapiens, UniProt P29274); assay: Safetyscan47 GPCR Calcium Flux, Antagonist; type: cell-based; details: for Emax: read-out: Max Response
nAChR(a4/b2) = nAChR(a4/b2) (Homo sapiens, UniProt P17787+P43681); assay: Safetyscan47 Ion Channel, Blocker; type: cell-based; details: for Emax: read-out: Max Response
integrin αvβ3 = integrin αvβ3 (Homo sapiens, UniProt P05106+P06756); assay: ELISA competition assay, integrin αvβ3; type: binding
DRD1 = DRD1 (Homo sapiens, UniProt P21728); assay: Safetyscan47 GPCR cAMP, Agonist; type: cell-based; details: for Emax: read-out: Max Response
HTR1A [1] = target: T3, HTR1A (Homo sapiens, UniProt P08908); assay: Safetyscan47 GPCR cAMP, Antagonist; type: cell-based; details: for Emax: read-out: Max Response
T3 sequence (P08908 1-422): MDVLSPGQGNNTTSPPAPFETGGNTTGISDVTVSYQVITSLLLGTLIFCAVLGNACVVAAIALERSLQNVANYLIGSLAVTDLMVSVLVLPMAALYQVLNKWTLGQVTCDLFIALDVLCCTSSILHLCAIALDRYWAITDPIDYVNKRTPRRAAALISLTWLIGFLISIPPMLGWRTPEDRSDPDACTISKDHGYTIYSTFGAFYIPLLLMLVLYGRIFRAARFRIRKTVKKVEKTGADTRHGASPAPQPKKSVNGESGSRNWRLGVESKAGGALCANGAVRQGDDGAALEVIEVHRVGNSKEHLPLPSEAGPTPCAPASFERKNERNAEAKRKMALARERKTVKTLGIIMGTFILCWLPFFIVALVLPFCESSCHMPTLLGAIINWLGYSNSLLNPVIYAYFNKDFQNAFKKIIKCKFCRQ

integrin αvβ1 = integrin αvβ1 (Homo sapiens, UniProt P05556+P06756); assay: ELISA competition assay, integrin αvβ1; type: binding
CNR1 = CNR1 (Homo sapiens, UniProt P21554); assay: Safetyscan47 GPCR cAMP, Antagonist; type: cell-based; details: for Emax: read-out: Max Response
OPRM1 = OPRM1 (Homo sapiens, UniProt P35372); assay: Safetyscan47 GPCR cAMP, Antagonist; type: cell-based; details: for Emax: OPRM1, read-out: Max Response
integrin αvβ8 = integrin αvβ8 (Homo sapiens, UniProt P06756+P26012); assay: ELISA competition assay, integrin αvβ8 binding to LAP
HTR1A [2] = target: T3, HTR1A; assay: Safetyscan47 GPCR cAMP, Agonist; type: cell-based; details: for Emax: read-out: Max Response
hERG = hERG (Homo sapiens, UniProt Q12809); assay: Safetyscan47 Ion Channel, Blocker; type: cell-based
AChE = AChE (Homo sapiens, UniProt P22303); assay: Safetyscan47 Non-Kinase Enzymes Enzymatic, Inhibitor; type: biochemical; details: for Emax: read-out: Max Response
ADRB2 = ADRB2 (Homo sapiens, UniProt P07550); assay: Safetyscan47 GPCR cAMP, Agonist; type: cell-based; details: for Emax: read-out: Max Response

For `CC[C@H](C)[C@H](NC(=O)[C@H](CC(C)C)NC(=O)[C@H](CC(=O)O)NC(=O)CNC(=O)[C@H](CCCNC(=N)N)NC(=O)[C@@H](NC(=O)[C@H](Cc1ccccc1)NC(=O)[C@H](Cc1ccc(O)cc1)NC(=O)[C@@H]1CCC(=O)NCC(=O)NCC(=O)N[C@@H](CCCNC(=N)N)C(=O)NCC(=O)N[C@@H](Cc2c[nH]cn2)C(=O)N[C@@H](C(C)C)C(=O)N2CCC[C@H]2C(=O)N1)C(C)C)C(=O)N[C@@H](CO)C(=O)N[C@@H](Cc1ccccc1)C(=O)N[C@@H](Cc1ccc(O)cc1)C(=O)N[C@@H](CCCCN)C(=O)O` [lassotide 36] (GGRGHVPEYFVRGDLISFYK-OH; lactam N-8), the IC50 (ROCK1) was > 45 µM, the Emax (ROCK1) was 19% and the IC50 (DRD2S) was > 45 µM. The Emax (DRD2S) was 0%, the IC50 (MAOA) was > 45 µM and the Emax (MAOA) was 10.8%. The EC50 (CHRM1) was > 45 µM, the Emax (CHRM1) was 0.34% and the IC50 (DAT) was > 45 µM. The Emax (DAT) was 29.8%, the IC50 (ADORA2A) was > 45 µM and the Emax (ADORA2A) was 0%. The IC50 (nAChR(a4/b2)) was > 45 µM, the Emax (nAChR(a4/b2)) was 2.98% and the IC50 (integrin αvβ3) was 0.343 µM. For the same compound, the EC50 (DRD1) was > 45 µM, the Emax (DRD1) was 0% and the IC50 (HTR1A [1]) was > 45 µM. For the same compound, the Emax (HTR1A [1]) was 0%, the IC50 (integrin αvβ1) was 0.084 µM and the IC50 (CNR1) was > 45 µM. The Emax (CNR1) was 9.79%, the IC50 (OPRM1) was > 45 µM and the Emax (OPRM1) was 0%. The IC50 (integrin αvβ8) was 0.015 µM, the EC50 (HTR1A [2]) was > 45 µM and the Emax (HTR1A [2]) was 0%. For the same compound, the IC50 (hERG) was > 45 µM, the Emax (hERG; human) was 5.06% and the IC50 (AChE) was > 45 µM. For the same compound, the Emax (AChE) was 0%, the EC50 (ADRB2) was > 45 µM and the Emax (ADRB2) was 0%.
In the case of `CC[C@H](C)[C@H](NC(=O)[C@H](CC(C)C)NC(=O)[C@H](CC(=O)O)NC(=O)CNC(=O)[C@H](CCCNC(=N)N)NC(=O)[C@@H](NC(=O)[C@H](Cc1ccccc1)NC(=O)[C@H](Cc1ccc(O)cc1)NC(=O)[C@@H]1CCC(=O)NCC(=O)NCC(=O)N[C@@H](CCCNC(=N)N)C(=O)NCC(=O)N[C@@H](Cc2c[nH]cn2)C(=O)N[C@@H](C(C)C)C(=O)N2CCC[C@H]2C(=O)N1)C(C)C)C(=O)N[C@@H](CO)C(=O)N[C@@H](Cc1ccccc1)C(=O)N[C@@H](Cc1ccc(O)cc1)C(=O)N[C@@H](CCCCNC(=O)CCOCCOCCNC(=O)CCCc1ccc(I)cc1)C(=O)O` [lassotide 47] (GGRGHVPEYFVRGDLISFYK([PEG2-Butanoyl(4-(4-I-phenyl))])-OH; lactam N-8), the IC50 (ROCK1) is reported as > 45 µM, the Emax (ROCK1) is reported as 2.56% and the IC50 (DRD2S) is reported as > 45 µM. The Emax (DRD2S) was 0%, the IC50 (MAOA) was > 45 µM and the Emax (MAOA) was 0%. The EC50 (CHRM1) was > 45 µM, the Emax (CHRM1) was 1.46% and the IC50 (DAT) was > 45 µM. For the same compound, the Emax (DAT) was 13%, the IC50 (ADORA2A) was > 45 µM and the Emax (ADORA2A) was 7.44%. The IC50 (nAChR(a4/b2)) was > 45 µM, the Emax (nAChR(a4/b2)) was 4.35% and the IC50 (integrin αvβ3) was 1 µM. The EC50 (DRD1) was > 45 µM, the Emax (DRD1) was 0% and the IC50 (HTR1A [1]) was > 45 µM. For the same compound, the Emax (HTR1A [1]) was 0%, the IC50 (integrin αvβ1) was 1.23 µM and the IC50 (CNR1) was > 45 µM. For the same compound, the Emax (CNR1) was 0%, the IC50 (OPRM1) was > 45 µM and the Emax (OPRM1) was 0%. The IC50 (integrin αvβ8) was 0.0079 µM, the EC50 (HTR1A [2]) was > 45 µM and the Emax (HTR1A [2]) was 30.1%. For the same compound, the Emax (hERG; human) was 1.41%, the IC50 (hERG; human) was > 45 µM and the IC50 (AChE) was > 45 µM. The Emax (AChE) was 7.88%, the EC50 (ADRB2) was > 45 µM and the Emax (ADRB2) was 0%.
